Test [1] concerns UPEC strain CFT073. The test is classed as in vivo, Escherichia coli (in female CBA/J mice). To be noted: compound 6 trial. The protocol:
Four groups of eight female CBA/J mice were transurethrally inoculated with a target dose of ∼10^8 CFU of either CFT073 or CFT073ΔcpxA::cat. One group was treated with ciprofloxacin (2.5 mg/kg/dose dissolved in sterile distilled water) s.c. 12, 24, 36, 48, and 60 h after inoculation with CFT073 as described ([31]). The untreated CFT073 and CFT073ΔcpxA::cat inoculated groups were given the vehicle control s.c. at 12, 24, 36, 48, and 60 h after inoculation. The compound 6 treated group were given the drug (100 mg/kg) s.c. at 12, 36, and 60 h after inoculation with CFT073 and received the vehicle control s.c. at 24 and 48 h. The animals were sacrificed 4 h after the last treatment (64 h postinoculation) and CFU per milliliter or CFU per gram of tissue was determined in the urine, bladder, and kidneys.
Animal experiments were conducted according to the guidelines of the University of Michigan Institutional Animal Care and Use Committee. For the animal infection experiments, bacterial strains were cultured at 37°C in LB medium overnight with shaking ([30]). Female CBA/J mice (Jackson Laboratories, Bar Harbor, ME) were inoculated transurethrally with a target dose of ∼10^8 CFU of CFT073 or CFT073ΔcpxA::cat. Mice were subsequently treated 12 h later either with the vehicle, ciprofloxacin hydrochloride (PanReac AppliChem ITW Reagents; Jade Scientific), compound 1, compound 6, or compound 26 as described in Results and euthanized 4 h after the last treatment. Bacterial loads of each strain were calculated from the urine, bladder, and kidneys of mice as previously described; the limits of detection for these assays were 100 CFU/mL or 100 CFU/g of urine and tissue, respectively ([33]). Values of 50 CFU/mL or 50 CFU/g were assigned to specimens whose yields were below the limit of detection.
Due to the extreme skewness of the data, natural log transformation was used before the data were analyzed statistically. Descriptive statistics were calculated for all of the log-transformed variables. Statistical comparisons were done using analysis of variance (ANOVA) with follow-up pairwise tests adjusted for multiple comparisons using the Tukey procedure.

Test [2] relates to CFT073. The experiment in a line: Growth of CFT073 in human urine (OD600). In kind it is cell-based, Escherichia coli. To be noted: 150 μM, 5 h.
Test [3] deals with E. coli CFT073 proteome. The experiment in a line: Label-free quantitative proteomics of CFT073 grown in human urine (LC-MS/MS). The test is classed as cell-based, Escherichia coli. The conditions noted are these: 150 μM, 5 h. The method, then:
E. coli CFT073 and CFT073ΔcpxA::cat were cultured overnight at 37°C in 5 mL of LB medium overnight with shaking. Bacteria were pelleted, washed twice in PBS, and suspended in 1 mL of PBS. Cells were then suspended in 10 mL of filter-sterilized pooled human urine obtained from 4 healthy female volunteers as described ([41]) to an OD600 of ∼0.02. Urine containing CFT073 was treated either with 150 mM compound 26 dissolved in 10 μL of DMSO to reach a final concentration of 150 μM or 10 μL of DMSO; urine containing CFT073ΔcpxA::cat was treated with 10 μL of DMSO. After 5 h of incubation, cultures were split into 5-mL aliquots, centrifuged, and the pellets were washed once with PBS and frozen at −80°C. One pellet from 4 independent experiments was used to detect CpxR-P using a Phos-Tag gel and Western blotting with an anti-MBP-CpxR antibody obtained from Thomas Silhavy as previously described ([31]). Densitometry values were determined using Photoshop 2021 (version 22.4.3), and the ratio of CpxR-P to CpxR was analyzed by one-way ANOVA adjusted for multiple comparisons using the Tukey procedure.
For label-free quantitative proteomics, cell pellets from 5 independent experiments were subjected for protein extraction followed by liquid chromatography-tandem mass spectrometry (LC-MS/MS). Sample preparation for LC-MS/MS analysis and proteomics pipeline was followed as described previously ([42]). In brief, bacteria were pelleted from urine cultures, and the pellets were solubilized in 1 mL of 8 M urea lysis buffer. Equal amounts of proteins (100 μg) were subjected for overnight trypsin/LysC (V5071; Promega) digestion. One microgram of bovine serum albumin (BSA) was added to each sample as an internal control prior to in-solution digestion. LC-MS/MS analysis was performed on a Dionex UltiMate 3000 (Thermo Fisher Scientific) system connected to a Q-Exactive HF-X mass spectrometer (Thermo Fisher Scientific). Detail settings of the LC-MS/MS analysis was described previously ([42]).
Peptide spectrum matching of MS/MS spectra was searched against the UniProt E. coli CFT073-UPEC database (TaxID 199310) using the Sequest algorithm within Proteome Discoverer version 2.4 software (Thermo Fisher Scientific). The Sequest database search was performed with the following parameters: trypsin enzyme cleavage specificity, 2 possible missed cleavages, 10 ppm mass tolerance for precursor ions, 0.02 Da mass tolerance for fragment ions. Search parameters permitted dynamic modification of methionine oxidation (+15.9949 Da) and static modification of carbamidomethylation (+57.0215 Da) on cysteine. Peptide assignments from the database search were filtered to a 1% false discovery rate. The relative label-free quantitative and comparative among the samples were performed using the Minora algorithm and Proteome Discoverer 2.4 software. Differential abundance of proteins between conditions was defined as a 1.5-fold change in relative abundance with an adjusted P value of <0.05.

The test system of test [4] is UPEC strain CFT073. The test is classed as in vivo, Escherichia coli (in female CBA/J mice). The conditions noted are these: compound 26 trial.
Setting [5] is: threshold 1.5-fold, adjusted P <0.05.

Consider `NC1CCCc2c1[nH]c1ccc(F)cc21` (stereo not drawn) [compound 6], for which the “CFU of CFT073 recovered in urine vs CFT073-inoculated vehicle control” value in test [1] (8 mice/group, compound 6 100 mg/kg s.c. at 12, 36, 60 h, ciprofloxacin 2.5 mg/kg/dose s.c. at 12, 24, 36, 48, 60 h, sacrifice 64 h) is “no effect”. For the same compound, in test [1] (same regimens), the “CFU of CFT073 recovered in bladder vs CFT073-inoculated vehicle control” value is “no effect” and the “CFU of CFT073 recovered in kidneys vs CFT073-inoculated vehicle control” value is “no effect”.

Turning to `N[C@@H]1CCCc2c1[nH]c1cc(F)c(F)cc21` [compound 26], the “effect on bacterial growth” value in test [2] was “does not inhibit bacterial growth”. The “OD600 of treated CFT073, mean ± SD” value in test [2] (5 independent experiments) was 0.52 ± 0.2. Besides, in test [3], the “additional higher-abundance proteins vs CFT073 control only” value is 27, the “additional higher-abundance proteins vs CFT073ΔcpxA::cat control only” value is reported as 28, the “additional lower-abundance proteins vs CFT073 control only” value stood at 12 and the “additional lower-abundance proteins vs CFT073ΔcpxA::cat control only” value was 10. Besides, in test [3] (setting [5]), the “number of higher abundance proteins vs both controls” value is 42 and the “number of lower abundance proteins vs both controls” value is recorded as 53. For the same compound, in test [4], the “recoverable CFU in bladder vs vehicle-treated mice inoculated with CFT073ΔcpxA::cat” value is “significantly lower”, the “recoverable CFU in kidneys vs vehicle-treated mice inoculated with CFT073ΔcpxA::cat” value is recorded as “significantly lower” and the “recoverable CFU in urine vs vehicle-treated mice inoculated with CFT073ΔcpxA::cat” value was “trended toward having a lower CFU”. Further, in test [4] (8 mice/group, compound 26 100 mg/kg s.c. at 12, 36, 60 h, ciprofloxacin 2.5 mg/kg/dose s.c. at 12, 24, 36, 48, 60 h, sacrifice 64 h), the “recoverable CFU in urine vs CFT073-inoculated vehicle-treated controls” value is listed as “significantly lowered”. Also, in test [4] (same regimens), the “recoverable CFU in bladder vs CFT073-inoculated vehicle-treated controls” value is on record as “trended toward lowering” and the “recoverable CFU in kidneys vs CFT073-inoculated vehicle-treated controls” value is on record as “trended toward lowering”. In test [4] (all P > 0.9), the “recoverable CFU in urine, bladder and kidneys vs ciprofloxacin-treated group” value is “no significant differences”.

For the origin of these results see article PMC9045377, “CpxA Phosphatase Inhibitor Activates CpxRA and Is a Potential Treatment for Uropathogenic Escherichia coli in a Murine Model of Infection” (Microbiology Spectrum, 2022).
